Test results taken from US8034941B2, “Imidazopyridazinone and imidazopyridone derivatives, the preparation thereof and their use as pharmaceutical compositions” (Boehringer Ingelheim International GmbH, priority 2003, dated 2011).
pIC50: −log10 of the molar value.

Molecular target: T1, DPP-IV (Homo sapiens, UniProt P27487)
T1 construct: an extract of human colon carcinoma cell line Caco-2 is used as the DPP IV source; endogenous in cells; host or cells: Caco-2 (human colon carcinoma), differentiated to induce DPP-IV expression; Nonidet-P40 solubilised extract
T1 sequence (P27487 whole entry): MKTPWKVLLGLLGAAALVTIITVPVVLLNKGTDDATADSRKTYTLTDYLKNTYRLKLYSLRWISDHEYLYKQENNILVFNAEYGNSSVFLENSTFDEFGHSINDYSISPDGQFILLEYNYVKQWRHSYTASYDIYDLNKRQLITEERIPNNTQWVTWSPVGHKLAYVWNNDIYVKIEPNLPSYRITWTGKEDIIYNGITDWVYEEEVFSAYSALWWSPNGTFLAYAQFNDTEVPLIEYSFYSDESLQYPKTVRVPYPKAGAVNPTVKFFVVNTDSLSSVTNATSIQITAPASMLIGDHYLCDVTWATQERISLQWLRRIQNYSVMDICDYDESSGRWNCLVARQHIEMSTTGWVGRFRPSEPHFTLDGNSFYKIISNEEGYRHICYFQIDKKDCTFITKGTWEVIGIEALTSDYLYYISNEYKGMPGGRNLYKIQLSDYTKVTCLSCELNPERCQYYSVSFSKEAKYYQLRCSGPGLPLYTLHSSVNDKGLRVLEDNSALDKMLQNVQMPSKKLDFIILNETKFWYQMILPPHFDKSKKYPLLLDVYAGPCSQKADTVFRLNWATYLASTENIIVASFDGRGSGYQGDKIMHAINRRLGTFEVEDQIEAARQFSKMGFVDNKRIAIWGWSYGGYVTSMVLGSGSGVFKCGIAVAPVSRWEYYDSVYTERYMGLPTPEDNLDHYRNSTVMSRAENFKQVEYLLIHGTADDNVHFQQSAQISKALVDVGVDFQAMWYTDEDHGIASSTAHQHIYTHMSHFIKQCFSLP
Assay: DPP-IV assay with Caco-2 cell extract as DPP IV source, AFC substrate, fluorescence
Assay type: biochemical
Details: extract of human colon carcinoma cell line Caco-2; substrate 100 μM; 60 minutes at ambient temperature; read-out: DPP IV inhibition IC50
Protocol: The cell extract was obtained from cells solubilised in a buffer (10 mM Tris HCl, 0.15 M NaCl, 0.04 t.i.u. aprotinin, 0.5% Nonidet-P40, pH 8.0) by centrifuging at 35,000 g for 30 minutes at 4° C. (to remove cell debris).
The DPP-IV assay was carried out as follows:
50 μl substrate solution (AFC; AFC is amido-4-trifluoromethylcoumarin), final concentration 100 μM, were placed in black microtitre plates. 20 μl of assay buffer (final concentrations 50 mM Tris HCl pH 7.8, 50 mM NaCl, 1% DMSO) was pipetted in. The reaction was started by adding 30 μl of solubilised Caco-2 protein (final concentration 0.14 μg of protein per well). The test substances to be investigated were typically added prediluted in 20 μl, and the volume of assay buffer was then reduced accordingly. The reaction was carried out at ambient temperature, incubating for 60 minutes. […] Blank readings (corresponding to 0% activity) were obtained in mixtures without any Caco-2 protein (volume replaced by assay buffer), control values (corresponding to 100% activity) were obtained in mixtures with no substance added.

pIC50 | Compound
8.15 | CC#CCn1c(N2CCC[C@@H](N)C2)nc2cnn(Cc3nc4c(ccc5ccccc54)o3)c(=O)c21 [1(8), 2-((R)-3-amino-piperidin-1-yl)-3-(2-butyn-1-yl)-5-[(naphtho[1,2-d]oxazol-2-yl)methyl]-3,5-dihydro-imidazo[4,5-d]pyridazin-4-one]
8.52 | CC#CCn1c(N2CCC[C@@H](N)C2)nc2cnn(Cc3nc4ccc5ccccc5c4o3)c(=O)c21 [1(7), 2-((R)-3-amino-piperidin-1-yl)-3-(2-butyn-1-yl)-5-[(naphtho[2,1-d]oxazol-2-yl)methyl]-3,5-dihydro-imidazo[4,5-d]pyridazin-4-one]
8.52 | CC#CCn1c(N2CCC[C@@H](N)C2)nc2cnn(Cc3nc4ccccc4c(=O)[nH]3)c(=O)c21 [1(9), 2-((R)-3-amino-piperidin-1-yl)-3-(2-butyn-1-yl)-5-[(4-oxo-3,4-dihydro-quinazolin-2-yl)methyl]-3,5-dihydro-imidazo[4,5-d]pyridazin-4-one]
7.77 | CC#CCn1c(N2CCCC(N)C2)nc2cnn(Cc3nc4ccccc4c4ccccc34)c(=O)c21 (centres unmarked) [1(1), 2-(3-amino-piperidin-1-yl)-3-(2-butyn-1-yl)-5-[(phenanthridin-6-yl)methyl]-3,5-dihydro-imidazo[4,5-d]pyridazin-4-one]
8.10 | CC#CCn1c(N2CCC[C@@H](N)C2)nc2c(C)nn(Cc3nc4ccccc4c4ccccc34)c(=O)c21 [1(3), 2-((R)-3-amino-piperidin-1-yl)-3-(2-butyn-1-yl)-5-[(phenanthridin-6-yl)methyl]-7-methyl-3,5-dihydro-imidazo[4,5-d]pyridazin-4-one x trifluoroacetic acid]
8.05 | CC#CCn1c(N2CCC[C@@H](N)C2)nc2c(C)nn(CC3=Nc4ccccc4Oc4ccccc43)c(=O)c21 [1(4), 2-((R)-3-amino-piperidin-1-yl)-3-(2-butyn-1-yl)-5-[(dibenzo[b,f][1,4]oxazepin-11-yl)methyl]-7-methyl-3,5-dihydro-imidazo[4,5-d]pyridazin-4-one]
7.24 | CC#CCn1c(N2CCCC(N)C2)nc2cnn(Cc3cc4ccccc4c4ccccc34)c(=O)c21 (centres unmarked) [1(2), 2-(3-amino-piperidin-1-yl)-3-(2-butyn-1-yl)-5-[(phenanthren-9-yl)methyl]-3,5-dihydro-imidazo[4,5-d]pyridazin-4-one]

Tested on: rats
Assay: Tolerability after oral administration to rats (behaviour)
Assay type: in vivo
Details: 10 mg/kg

Compound | changes in the animals' behaviour
CC#CCn1c(N2CCCC(N)C2)nc2cnn(CC3=Nc4ccccc4Oc4ccccc43)c(=O)c21 (centres unmarked) [Example 1, 2-(3-amino-piperidin-1-yl)-3-(2-butyn-1-yl)-5-[(dibenzo[b,f][1,4]oxazepin-11-yl)methyl]-3,5-dihydro-imidazo[4,5-d]pyridazin-4-one] | no changes in the animals' behaviour could be detected
